These are literature values, as cited in patent US12285420B2 (ACASTI PHARMA U.S., INC., priority 2018, dated 2025).

The conditions of data set [1]: man, oral administration.
The conditions of data set [2]: nimodipine-treated subarachnoid hemorrhage (SAH) patients.

For `COCCOC(=O)C1=C(C)NC(C)=C(C(=O)OC(C)C)C1c1cccc([N+](=O)[O-])c1` (centres unmarked) [nimodipine, isopropyl 2-methoxyethyl 1,4-dihydro-2,6-dimethyl-4-(m-nitrophenyl)-3,5-pyridinedicarboxylate], in data set [1], the “Half-life equivalent to earlier elimination rates” value is 1 to 2 h. Moreover, in data set [2], the “Concentration of nimodipine detected in the cerebrospinal fluid” value is no more than 0.0125 µg/mL.
